From ChEMBL document CHEMBL1697692, “Developing structure-activity relationships for the prediction of hepatotoxicity” (Chem Res Toxicol, 2010)

Tested on: Hepatotoxicity
Experiment: Literature-mined public compounds from Greene et al multi-species hepatotoxicity modelling dataset

Compound | Hepatotoxicity
CC(=O)S[C@@H]1CC2=CC(=O)CC[C@]2(C)[C@H]2CC[C@@]3(C)[C@@H](CC[C@@]34CCC(=O)O4)[C@H]12 [SPIRONOLACTONE] | HH: Evidence of human hepatotoxicity
C=C1CC[C@H](O)C/C1=C/C=C1\CCC[C@]2(C)[C@@H]([C@H](C)/C=C/[C@H](C)C(C)C)CC[C@@H]12 [ERGOCALCIFEROL] | NE: No evidence of hepatotoxicity in any species
Clc1ccc(Cl)cc1 [1,4-DICHLOROBENZENE] | AH: Evidence for animal hepatotoxicity but not tested in humans
Cc1cc(C2CCCCC2)n(O)c(=O)c1 [CICLOPIROX] | NE: No evidence of hepatotoxicity in any species
C=C1[C@@H]2CCC3[C@@](CC[C@@H]4[C@H](C(=O)O)C[C@@H](O[C@@H]5O[C@H](CO)[C@@H](OS(=O)(=O)[O-])[C@H](OS(=O)(=O)[O-])[C@H]5OC(=O)CC(C)C)C[C@@]34C)(C2)[C@@H]1O.[K+].[K+] (stereo not given in full) [ATRACTYLOSIDE] | HH: Evidence of human hepatotoxicity
CC1(C)C(C=C(Cl)Cl)C1C(=O)OCc1cccc(Oc2ccccc2)c1 (stereo not given) [PERMETHRIN] | NE: No evidence of hepatotoxicity in any species
C[C@H](CCC(=O)O)[C@H]1CC[C@H]2[C@@H]3[C@@H](O)C[C@@H]4C[C@H](O)CC[C@]4(C)[C@H]3CC[C@]12C (stereo in doubt; form 2) [URSODIOL] | WE: Weak evidence (<10 case reports) of human hepatotoxicity
O=C1C(CC[S+]([O-])c2ccccc2)C(=O)N(c2ccccc2)N1c1ccccc1 (stereo not given) [SULFINPYRAZONE] | HH: Evidence of human hepatotoxicity
CC(C(=O)O)c1ccc(-c2ccccc2)c(F)c1 (stereo not given) [FLURBIPROFEN] | HH: Evidence of human hepatotoxicity
COc1cc(C)c(/C=C/C(C)=C/C=C/C(C)=C/C(=O)O)c(C)c1C [ACITRETIN] | HH: Evidence of human hepatotoxicity
CCCOc1ccc2nc(NC(=O)OC)[nH]c2c1 [OXIBENDAZOLE] | AH: Evidence for animal hepatotoxicity but not tested in humans
CC(C)(C)NCC(O)COc1cccc2c1CC(O)C(O)C2 (stereo not given) [NADOLOL] | NE: No evidence of hepatotoxicity in any species
CN1CCCCC1CCN1c2ccccc2Sc2ccc([S+](C)[O-])cc21.O=S(=O)(O)c1ccccc1 (stereo not given) [MESORIDAZINE BESYLATE] | HH: Evidence of human hepatotoxicity
CN(C)CCCN1c2ccccc2Sc2ccccc21.Cl [PROMAZINE HYDROCHLORIDE] | WE: Weak evidence (<10 case reports) of human hepatotoxicity
Nc1cc(-c2ccncc2)c[nH]c1=O [INAMRINONE] | HH: Evidence of human hepatotoxicity
COc1ccc2c(c1)c(CC(=O)O)c(C)n2C(=O)c1ccc(Cl)cc1 [INDOMETHACIN] | HH: Evidence of human hepatotoxicity
CN1CCC(=C2c3ccccc3C=Cc3ccccc32)CC1.Cl [CYPROHEPTADINE HYDROCHLORIDE] | HH: Evidence of human hepatotoxicity
CC1(C)S[C@@H]2[C@H](NC(=O)Cc3ccccc3)C(=O)N2[C@H]1C(=O)[O-].[Na+] [PENICILLIN G SODIUM] | HH: Evidence of human hepatotoxicity
CC(=O)Nc1cccc(O)c1 [METACETAMOL] | WE: Weak evidence (<10 case reports) of human hepatotoxicity
CC[N+](C)(CC)CCOC(=O)C(O)(c1ccccc1)C1CCCCC1 (stereo not given) [OXYPHENONIUM] | NE: No evidence of hepatotoxicity in any species

Compound | Hepatotoxicity
CCC1(c2ccccc2)CCC(=O)NC1=O (stereo not given) [GLUTETHIMIDE] | HH: Evidence of human hepatotoxicity
CN1CCN(C(c2ccccc2)c2ccccc2)CC1 [CYCLIZINE] | HH: Evidence of human hepatotoxicity
CCC1(C)CC(=O)NC1=O (stereo not given) [ETHOSUXIMIDE] | HH: Evidence of human hepatotoxicity
CCCCNc1ccc(C(=O)OCCN(C)C)cc1.Cl [TETRACAINE HYDROCHLORIDE] | NE: No evidence of hepatotoxicity in any species
CC(N)C(O)c1ccccc1.Cl (stereo not given) [PHENYLPROPANOLAMINE HYDROCHLORIDE] | NE: No evidence of hepatotoxicity in any species
CC(NC(C)(C)C)C(=O)c1cccc(Cl)c1.Cl (stereo not given) [BUPROPION HYDROCHLORIDE] | WE: Weak evidence (<10 case reports) of human hepatotoxicity
O=C1CC2(CCCC2)CC(=O)N1CCCCN1CCN(c2ncccn2)CC1 [BUSPIRONE] | NE: No evidence of hepatotoxicity in any species
O=c1[nH]c2ccccc2n1C1CCN(CCCC(c2ccc(F)cc2)c2ccc(F)cc2)CC1 [PIMOZIDE] | NE: No evidence of hepatotoxicity in any species
CC1(C)[C@@H](OC(=O)CCC(=O)[O-])CC[C@]2(C)[C@H]3C(=O)C=C4[C@@H]5C[C@@](C)(C(=O)[O-])CC[C@]5(C)CC[C@@]4(C)[C@]3(C)CC[C@@H]12.[Na+].[Na+] [CARBENOXOLONE SODIUM] | NE: No evidence of hepatotoxicity in any species
Cl.N[C@@H]1C[C@H]1c1ccccc1 [TRANYLCYPROMINE HYDROCHLORIDE] | NE: No evidence of hepatotoxicity in any species
CCOC(=O)C1(c2ccccc2)CCN(CCC(C#N)(c2ccccc2)c2ccccc2)CC1.Cl [DIPHENOXYLATE HYDROCHLORIDE] | NE: No evidence of hepatotoxicity in any species
GENTAMICIN | NE: No evidence of hepatotoxicity in any species
C=C1CC[C@@]2(O)[C@H]3Cc4ccc(O)c5c4[C@@]2(CCN3CC2CC2)[C@H]1O5 | NE: No evidence of hepatotoxicity in any species
CCC1(c2ccccc2)C(=O)NCNC1=O [PRIMIDONE] | NE: No evidence of hepatotoxicity in any species
GADOLINIUM HYDROCHLORIDE | AH: Evidence for animal hepatotoxicity but not tested in humans
O=C1NC(=O)C(c2ccccc2)(c2ccccc2)N1 [PHENYTOIN] | HH: Evidence of human hepatotoxicity
CCOC(=O)C(C)(C)Oc1ccc(Cl)cc1 [CLOFIBRATE] | HH: Evidence of human hepatotoxicity
C[C@]12CC[C@@H]3c4ccc(O)cc4CC[C@H]3[C@@H]1CC[C@@H]2O [ESTRADIOL] | WE: Weak evidence (<10 case reports) of human hepatotoxicity
CCCCc1oc2ccccc2c1C(=O)c1cc(I)c(OCCN(CC)CC)c(I)c1 [AMIODARONE] | HH: Evidence of human hepatotoxicity
Oc1ncc(N(CCCl)CCCl)c(O)n1 [URACIL MUSTARD] | HH: Evidence of human hepatotoxicity

Compound | Hepatotoxicity
COc1cc(Cc2cnc(N)nc2N)cc(OC)c1OC [TRIMETHOPRIM] | HH: Evidence of human hepatotoxicity
CN(C)CCCN1c2ccccc2CCc2ccccc21.Cl [IMIPRAMINE HYDROCHLORIDE] | HH: Evidence of human hepatotoxicity
Br.COc1ccc2c(c1)[C@]13CCCC[C@@H]1[C@H](C2)N(C)CC3.O [DEXTROMETHORPHAN HYDROBROMIDE] | NE: No evidence of hepatotoxicity in any species
CNS(=O)(=O)Cc1ccc2[nH]cc(CCN(C)C)c2c1 | NE: No evidence of hepatotoxicity in any species
CCN(CC)CCCC(C)Nc1ccnc2cc(Cl)ccc12.O=P(O)(O)O.O=P(O)(O)O (stereo not given) [CHLOROQUINE PHOSPHATE] | WE: Weak evidence (<10 case reports) of human hepatotoxicity
CCOC(=O)[C@H](CCc1ccccc1)N[C@H]1CCc2ccccc2N(CC(=O)O)C1=O [BENAZEPRIL] | WE: Weak evidence (<10 case reports) of human hepatotoxicity
Clc1ccccc1CN1CCc2sccc2C1 [TICLOPIDINE] | HH: Evidence of human hepatotoxicity
N[C@@H]1[C@H]2CN(c3nc4c(cc3F)c(=O)c(C(=O)O)cn4-c3ccc(F)cc3F)C[C@@H]12 [TROVAFLOXACIN] | HH: Evidence of human hepatotoxicity
CO[C@H]1/C=C/O[C@@]2(C)Oc3c(C)c(O)c4c(c3C2=O)C2=NC3(CCN(CC(C)C)CC3)NC2=C(NC(=O)/C(C)=C\C=C\[C@H](C)[C@H](O)[C@@H](C)[C@@H](O)[C@@H](C)[C@H](OC(C)=O)[C@@H]1C)C4=O [RIFABUTIN] | HH: Evidence of human hepatotoxicity
CN[C@H](CC(C)C)C(=O)N[C@H]1C(=O)N[C@@H](CC(N)=O)C(=O)N[C@H]2C(=O)N[C@H]3C(=O)N[C@H](C(=O)N[C@H](C(=O)O)c4cc(O)cc(O)c4-c4cc3ccc4O)[C@H](O)c3ccc(c(Cl)c3)Oc3cc2cc(c3O[C@@H]2O[C@H](CO)[C@@H](O)[C@H](O)[C@H]2O[C@H]2C[C@](C)(N)[C@H](O)[C@H](C)O2)Oc2ccc(cc2Cl)[C@H]1O [VANCOMYCIN] | HH: Evidence of human hepatotoxicity
Cc1c(F)c(N2CCNC(C)C2)cc2c1c(=O)c(C(=O)O)cn2C1CC1 (stereo not given) [GREPAFLOXACIN] | HH: Evidence of human hepatotoxicity
COc1ccc(CCN2CCC(Nc3nc4ccccc4n3Cc3ccc(F)cc3)CC2)cc1 [ASTEMIZOLE] | NE: No evidence of hepatotoxicity in any species
O=[N+]([O-])O[C@H]1CO[C@H]2[C@@H]1OC[C@H]2O[N+](=O)[O-] [ISOSORBIDE DINITRATE] | NE: No evidence of hepatotoxicity in any species
CC(C)(C)NC[C@H](O)COc1ccccc1C1CCCC1.CC(C)(C)NC[C@H](O)COc1ccccc1C1CCCC1.O=S(=O)(O)O [PENBUTOLOL SULFATE] | HH: Evidence of human hepatotoxicity
O=C(O)c1ccccc1Nc1cccc(C(F)(F)F)c1 [FLUFENAMIC ACID] | WE: Weak evidence (<10 case reports) of human hepatotoxicity
O=C(O)CCc1nc(-c2ccccc2)c(-c2ccccc2)o1 [OXAPROZIN] | HH: Evidence of human hepatotoxicity
C1CCC(C(CC2CCCCN2)C2CCCCC2)CC1 (stereo not given) [PERHEXILINE] | HH: Evidence of human hepatotoxicity
O[C@H]1[C@H](O)[C@@H](O)[C@H](O)[C@@H](O)[C@H]1O [INOSITOL] | NE: No evidence of hepatotoxicity in any species
C[C@H]1[C@H](NC(=O)/C(=N\OC(C)(C)C(=O)O)c2csc(N)n2)C(=O)N1S(=O)(=O)O [AZTREONAM] | NE: No evidence of hepatotoxicity in any species
COc1cccc2c1C(=O)c1c(O)c3c(c(O)c1C2=O)C[C@@](O)(C(=O)CO)C[C@@H]3O[C@H]1C[C@H](N)[C@@H](O)[C@H](C)O1 [EPIRUBICIN] | NE: No evidence of hepatotoxicity in any species
